In publication PMC7058083, “Structural basis of ligand binding modes at the human formyl peptide receptor 2” (Nature Communications, 2020):
Numbering of substitutions follows the chain as printed.

Key:
Assay in all cases: Saturation binding of WK(FITC)YMVm, flow cytometry on HEK293F cells
[1] = target: T1, wild-type (WT) and mutant FPR2 (Homo sapiens, UniProt P25090, L81F); conditions: FPR2 L81F
T1 construct: expressed in transfected cells; host or cells: HEK293F
T1 sequence (P25090 1-351 L81F): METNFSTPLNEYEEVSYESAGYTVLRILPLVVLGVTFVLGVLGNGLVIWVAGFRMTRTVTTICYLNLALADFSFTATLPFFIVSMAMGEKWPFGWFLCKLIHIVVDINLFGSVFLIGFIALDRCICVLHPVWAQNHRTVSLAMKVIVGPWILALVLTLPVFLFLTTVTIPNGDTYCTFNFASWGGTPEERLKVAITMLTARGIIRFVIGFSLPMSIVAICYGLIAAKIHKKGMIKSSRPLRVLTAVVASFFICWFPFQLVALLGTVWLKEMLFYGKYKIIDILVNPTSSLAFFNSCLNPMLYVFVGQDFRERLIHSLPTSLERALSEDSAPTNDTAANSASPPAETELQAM
Experimental: (§1) Flag-tagged wild-type and mutant FPR2s were cloned into the pTT5 vector and expressed in HEK293F cells. The cells were harvested, and washed with Hanks’ Balanced Salt Solution (HBSS) buffer supplemented with 0.5% bovine serum albumin and 20 mM HEPES, pH 7.4. The cells were then resuspended in the same buffer to the final concentration of 1 × 10^6 cells per ml. The cell-surface expression was measured as mentioned above. […] Mean fluorescent intensity of each well was then read by a FCM (flow cytometry) reader (Millipore). […] For competitive binding of fMLFK, cells were plated in 96-well plates (100,000 cells per well), and incubated with WK(FITC)YMVm at 4 °C for 1 h. The following concentrations of WK(FITC)YMVm were used: 10 nM (wild type, L81^2.60F, E89G, and V105^3.32A), 30 nM (D281^7.32G), 40 nM (H102^3.29F, V160^4.60A, L268^ECL3A, N285^7.36A, and F292^7.43A), and 100 nM (L164^4.64A and T177A). Then increasing concentrations of fMLFK (100 nM–1 mM) were added, and incubated for another 1 h on ice. Mean fluorescent intensity values were measured by flow cytometry. Data were analyzed using Prism 7.0.

[2] = target: T2, wild-type (WT) and mutant FPR2 (Homo sapiens, UniProt P25090, D281L); conditions: FPR2 D281L
T2 construct: expressed in transfected cells; host or cells: HEK293F
Experimental: as §1

[3] = system: wild-type (WT) and mutant FPR2; design: species or system human
Experimental: as §1

[4] = target: T3, wild-type (WT) and mutant FPR2 (Homo sapiens, UniProt P25090); conditions: FPR2 WT
T3 construct: expressed in transfected cells; host or cells: HEK293F
T3 sequence (P25090 1-351): T1 sequence (P25090 1-351 L81F) with F81L
Experimental: as §1

[5] = target: T4, wild-type (WT) and mutant FPR2 (Homo sapiens, UniProt P25090, S211L)
T4 construct: expressed in transfected cells; host or cells: HEK293F
Experimental: as §1

[6] = target: T5, wild-type (WT) and mutant FPR2 (Homo sapiens, UniProt P25090, T177A); conditions: FPR2 T177A
T5 construct: expressed in transfected cells; host or cells: HEK293F
T5 sequence (P25090 1-351 T177A): T1 sequence (P25090 1-351 L81F) with F81L, T177A
Experimental: as §1

[7] = target: T6, wild-type (WT) and mutant FPR2 (Homo sapiens, UniProt P25090, R205A); conditions: mutant R205A
T6 construct: expressed in transfected cells; host or cells: HEK293F
Experimental: as §1

[8] = target: T7, wild-type (WT) and mutant FPR2 (Homo sapiens, UniProt P25090, L268A); conditions: FPR2 L268A
T7 construct: expressed in transfected cells; host or cells: HEK293F
T7 sequence (P25090 1-351 L268A): T1 sequence (P25090 1-351 L81F) with F81L, L268A
Experimental: as §1

T2 sequence (P25090 whole entry D281L): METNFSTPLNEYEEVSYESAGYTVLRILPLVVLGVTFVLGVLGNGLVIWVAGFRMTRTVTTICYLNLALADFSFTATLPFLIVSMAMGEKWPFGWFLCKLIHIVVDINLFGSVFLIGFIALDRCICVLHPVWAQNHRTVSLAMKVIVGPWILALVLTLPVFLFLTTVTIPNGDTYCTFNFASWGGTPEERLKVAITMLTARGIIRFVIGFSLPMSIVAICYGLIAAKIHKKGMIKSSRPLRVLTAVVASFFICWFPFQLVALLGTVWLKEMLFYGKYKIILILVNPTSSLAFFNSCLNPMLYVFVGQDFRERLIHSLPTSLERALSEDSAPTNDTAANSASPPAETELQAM
T4 sequence (P25090 other isoform, or with tags, fused parts or gaps S211L): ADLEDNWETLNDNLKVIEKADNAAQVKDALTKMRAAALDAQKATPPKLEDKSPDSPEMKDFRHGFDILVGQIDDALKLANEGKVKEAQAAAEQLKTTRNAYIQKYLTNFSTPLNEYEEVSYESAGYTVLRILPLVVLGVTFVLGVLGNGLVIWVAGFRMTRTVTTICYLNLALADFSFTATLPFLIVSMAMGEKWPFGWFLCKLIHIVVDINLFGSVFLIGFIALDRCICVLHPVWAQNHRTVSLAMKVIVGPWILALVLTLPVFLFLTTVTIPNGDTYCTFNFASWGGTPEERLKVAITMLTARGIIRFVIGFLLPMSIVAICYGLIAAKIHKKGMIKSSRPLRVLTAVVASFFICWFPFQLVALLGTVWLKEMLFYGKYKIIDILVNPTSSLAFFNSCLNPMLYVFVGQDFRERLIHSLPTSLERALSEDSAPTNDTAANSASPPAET
T6 sequence (P25090 whole entry R205A): as the sequence (P25090 whole entry D281L) above, with R205A, L281D counted along it

Span (% of WT), saturation binding [1]: 42 ± 4 % of WT | Kd ([1]; mean ± s.e.m., n=3, SEM): 24.3 ± 8.4 nM | Span (% of WT), saturation binding [2]: 39 ± 11 % of WT | Kd ([2]; mean ± s.e.m., n=3, SEM): 57.6 ± 14.0 nM | Span (% of WT), saturation binding [4]: 100 % of WT | Kd ([4]; mean ± s.e.m., n=3, SEM): 24.0 ± 8.5 nM | Span (% of WT), saturation binding ([5]; FPR2 crystallization construct): 154 ± 21 % of WT | Kd ([5]; FPR2 crystallization construct (N-terminal bRIL, S211L, 5 C-terminal residues truncated), mean ± s.e.m., n=5, SEM): 27.7 ± 5.6 nM | Span (% of WT), saturation binding [6]: 66 ± 5 % of WT | Kd ([6]; mean ± s.e.m., n=3, SEM): 109 ± 34 nM | WK(FITC)YMVm binding [7]: complete loss | Span (% of WT), saturation binding [8]: 76 ± 7 % of WT | Kd ([8]; mean ± s.e.m., n=3, SEM): 28.0 ± 10.0 nM
Structure (SMILES): CSCC[C@H](NC(=O)[C@H](Cc1ccc(O)cc1)NC(=O)[C@H](CCCCNC(=S)Nc1ccc2c(c1)C(=O)OC21c2ccc(O)cc2Oc2cc(O)ccc21)NC(=O)[C@@H](N)Cc1c[nH]c2ccccc12)C(=O)N[C@H](C(=O)N[C@H](CCSC)C(N)=O)C(C)C [WK(FITC)YMVm]
reduction of binding affinity of WK(FITC)YMVm ([3]; mutant F257Y vs WT): 7 fold | binding of WK(FITC)YMVm ([3]; mutants D281G and D281L): decreased binding | binding of WK(FITC)YMVm ([3]; mutations D106A and R201A): significantly impaired | binding of FPR2 to WK(FITC)YMVm ([3]; mutations V105F, L109A, F110A, V113A, L164W, F178A, F180A, W254A, F257A and M271A): abolish the binding
